This is an account of results in US4973708A, “3-hydroxy-N-methylpyrrolidone and preparation thereof” (University of Kentucky Research Foundation, priority 1988, dated 1990).

Series [1] is classed as in vitro ADME, human. As for the experimental part:
Standard Franz diffusion cells (15 mm i.d., o-ring design) were manufactured by Crown Glass Inc., Somerville, N.J. The cell caps were modified with ground glass joints to fit 14/20 ground glass stoppers. A Franz diffusion cell drive console F-DCD-9 was also manufactured by Crown Glass. A Vandercamp 2500 recirculating water bath was used to maintain the cells at 37° C. Split thickness human allograph tissues (0.015 in. thickness), thigh back area, was obtained from the Tissue Transplant Bank, St. Agnes Medical Center, Philadelphia, Pa. Samples were counted in a Packard Auto-Gamma Scintillation Spectrometer.
Sterile Saline (0.9% Sodium Chloride USP, Travenol, NDC 0338-0049-04 lot co56747), Albumin (Bovine, fraction v, Sigma A-4503 lot 127F-0877), N-Methyl-2-pyrrolidone (Aldrich 99+ % Cat No. 24,279-9 lot 04402TP), Neomycin Sulfate (Sigma N-1876 lot 66F-0151), absolute ethanol (Midwest Solvents Company of Illinois).
Human allograph tissue, which had been stored at -70° C., was thawed and immediately mounted in a Franz type diffusion cell. The receptor chamber was filled with normal saline containing 2% albumin and 0.05% neomycin sulfate. Each cell was maintained at 37° C. and stirred at 600 rpm. After the cells had been allowed to equilibrate for 4 to 6 hours, 200 ul of a saturated ethanolic solution of 5-chloro-8-hydroxy-7-[^125I]-iodoquinoline (approx. 70 uCi, 0.44 mg) was applied to the donor side of each cell. This was immediately followed by either 200 μl of absolute ethanol for the control cells, 200 μl of 50% (w/v 3-hydroxy-N-methylpyrrolidone in ethanol or an equimolar ethanolic solution of N-methylpyrrolidone (43.1% w/v). The cells were then capped with ground glass stoppers. At various time intervals, over an 80-100 hour period, the entire contents of the receptor chamber was removed with a 10 cc syringe and placed into a vial. The receptor chamber was then refilled with fresh solution. After the last collection these vials were placed in a well-type gamma counter and counted for I-125 activity.
At the time of dosing 200 μl of the saturated 5-chloro-8-hydroxy-7-[^125 I]-iodoquinoline solution was placed into separate vials to calculate the amount of activity (dose) applied to the skin.
In this example, 3-hydroxy-N-methyl pyrrolidone was tested for its use as a percutaneous penetration enhancer. In vitro studies were carried out using Franz type diffusion cells. The penetration enhancing properties of 3-hydroxy-N-methylpyrrolidone was compared to N-methyl pyrrolidone, a compound known to enhance the penetration of drugs through the skin.
For these in vitro studies radioiodinated 5-chloro-8-hydroxy-7-iodoquinoline was chosen as a model drug. This drug, known as Clioquinol USP, is currently marketed by Ciba (Ciba Pharmaceutical Company, 556 Morris Avenue, Summit, N.J. 07901), as a topical antibacterial/antifungal agent trade named Vioform™. […] This radiolabeled marker is conveniently used to follow the penetration of the drug through the skin.
Franz diffusion cells are designed to mimic in vivo conditions. A finite dose of drug is applied to the stratum corneum side of the skin and penetration is followed by analyzing for the drug in the receptor phase underneath. In these studies the amount of drug crossing the skin barrier is estimated by counting total radioactivity in the receptor phase.
In a preliminary study, the transdermal absorption of Clioquinol was evaluated in the presence of 3-hydroxy-N-methylpyrrolidone, N-methylpyrrolidone, and in the absence of enhancer. An ethanolic solution of [I-131]-Clioquinol was applied to 3 cells followed by either ethanol (control), 50% 3-hydroxy-N-methylpyrrolidone in ethanol or an equimolar solution of N-methylpyrrolidone. In FIG. 1, the percent penetration of 5-chloro-8-hydroxy-7-[^131 I]-iodoquinoline through human skin is illustrated. The amount of 5-chloro-8-hydroxy-7-[^131 I]-iodoquinolineactivity applied is equal to 100%.
The study was repeated using I-125 labeled Clioquinol. […]

For series [2] the following is noted: cited from earlier work.
Series [3] in a line: Metabolism of N-methylpyrrolidone, metabolite excreted in urine. From the text: As pointed out above, a penetration enhancer is a chemical compound which, when included in a transdermal formulation, affects the skin of a human by increasing permeability of the skin to allow more of a drug to be absorbed in a shorter period of time. The penetration enhancer is normally contained in a formulation, called a transdermal composition, in combination with the appropriate drug to be delivered and other known components of the formulation. […] As mentioned herein, N-methylpyrrolidone is a known penetration enhancer. In studies leading to this invention using the prior art compound, N-methyl-2-pyrrolidone, it was discovered that a major metabolite of N-methylpyrrolidone which is excreted in the urine is 3-hydroxy-N-methyl-2-pyrrolidone. […] Further, 3-hydroxy-N-methylpyrrolidone is a "softer" xenobiotic to the body because no energy will be expended in metabolic processes after the compound's absorption into the systemic circulation. Also, in view of the apparent safety of N-methylpyrrolidone, its major metabolite, 3-hydroxy-N-methylpyrrolidone, would be expected to have an even lower toxicity.

The conditions of series [4]: animal and human experiments; cited from earlier work.

In the case of `CN1CCC(O)C1=O` (stereo not shown) [3-hydroxy-N-methylpyrrolidone, 3-hydroxy-N-methyl-2-pyrrolidone], in series [1], the “amount of Clioquinol penetrating the skin, times greater than with N-methylpyrrolidone” value stood at 1.3 times; the “amount of Clioquinol penetrating the skin, times higher than the control” value is 1.8 times; the “amount of I-131 Clioquinol penetrated, times greater than the control” value is reported as 3.9 times; the “amount of I-131 Clioquinol penetrated, times more than with N-methylpyrrolidone” value amounted to 1.5 times. Moreover, in series [1], the “effectiveness in enhancing the absorption of drugs (conclusion in words)” value is on record as “more effective than N-methylpyrrolidone”; the “percent of Clioquinol absorbed in the presence of enhancer” value came out at 19%; the “percent penetration of I-125 labeled Clioquinol through human skin (absorbed), with enhancer” value amounted to 40.0%; the “percent penetration of [I-131]-Clioquinol through human skin (absorbed), with enhancer” value was determined as 10.2%. The “relative order of enhancement of Clioquinol penetration” value in series [1] is on record as 3-hydroxy-N-methylpyrrolone >N-methylpyrrolone>control.

On to `Oc1c(I)cc(Cl)c2cccnc12` [Clioquinol, 5-chloro-8-hydroxy-7-iodoquinoline], for which the “absorption through the skin” value in series [2] (reason for choice as model drug) was “absorbed very slowly through the skin”. Besides, in series [1], the “percent penetration of I-125 labeled Clioquinol through human skin (absorbed), control” value was determined as 19.5%; the “percent penetration of [I-131]-Clioquinol through human skin (absorbed), control” value was 2.6%; the “time in which the same amount of Clioquinol was absorbed, absence of enhancer” value turned out to be 85 h.

For `CN1CCCC1=O` [N-methylpyrrolidone, N-methyl-2-pyrrolidone], in series [2] (literature), the penetration enhancement result is “effective penetration enhancer”. In series [1], the “percent penetration of I-125 labeled Clioquinol through human skin (absorbed), with enhancer” value is 27.8%; the “percent penetration of [I-131]-Clioquinol through human skin (absorbed), with enhancer” value came out at 6.5%; the “relative order of enhancement of Clioquinol penetration” value is reported as “N-methylpyrrolone>control”. In series [3], the “major metabolite excreted in the urine” value is reported as 3-hydroxy-N-methyl-2-pyrrolidone. In addition, the “irritation or sensitization potential” value in series [4] is listed as “very little irritation or sensitization potential”.
